Data published in patent US10597388B2, “Pyridazinone herbicides” (FMC CORPORATION, priority 2014, dated 2020).

Columns and labels:
Experiment in all cases: Test D controlled growth environment herbicide test, pre- and postemergence
Format in all cases: in vivo
[1] = tested on: barley, winter (winter barley, Hordeum vulgare)
How it was run: (§1)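 Species sown in silt loam and sprayed preemergence, or grown in peat-based medium to 2–18 cm (1- to 4-leaf stage) and sprayed postemergence, with compounds in non-phytotoxic solvent plus surfactant. Visual injury scored versus controls after 14–21 d in a controlled environment, 0 (no effect) to 100 (complete control).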

[2] = tested on: blackgrass (Alopecurus myosuroides)
How it was run: as §1

[3] = tested on: chickweed (common chickweed, Stellaria media)
How it was run: as §1

[4] = tested on: deadnettle (henbit deadnettle, Lamium amplexicaule)
How it was run: as §1

[5] = tested on: foxtail, green (green foxtail, Setaria viridis)
How it was run: as §1

[6] = tested on: galium (catchweed bedstraw, Galium aparine)
How it was run: as §1

kochia (Kochia scoparia) = tested on: kochia (Kochia scoparia)
How it was run: as §1

[7] = tested on: lambsquarters (Chenopodium album)
How it was run: as §1

[8] = tested on: pigweed (Amaranthus retroflexus)
How it was run: as §1

[9] = tested on: ryegrass, Italian (Italian ryegrass, Lolium multiflorum)
How it was run: as §1

[10] = tested on: speedwell (bird's-eye speedwell, Veronica persica)
How it was run: as §1

[11] = tested on: wheat, winter (winter wheat, Triticum aestivum)
How it was run: as §1

[12] = tested on: windgrass (Apera spica-venti)
How it was run: as §1

[13] = Postemergence, 31 g ai/ha, scale 0 to 100 (0 no effect, 100 complete control)
[14] = Postemergence, 125 g ai/ha, visual rating on scale 0 (no effect) to 100 (complete control), 14 to 21 d
[15] = Postemergence, 250 g ai/ha, scale 0 to 100 (0 no effect, 100 complete control)
[16] = Preemergence, 62 g ai/ha, scale 0 to 100 (0 no effect, 100 complete control)
[17] = Preemergence, 125 g ai/ha, scale 0 to 100 (0 no effect, 100 complete control)
[18] = Preemergence, 250 g ai/ha, scale 0 to 100 (0 no effect, 100 complete control)
[19] = postemergence, 62 g ai/ha, scale 0 to 100, 0 no effect, 100 complete control

Cc1cc(C)c2sc(C)c(-c3c(OC(=O)OC(C)C)c(C)nn(C)c3=O)c2c1 [Compound 67]
Barley, Winter plant response rating [1, 13]: 0 | Plant response rating, Barley, Winter [1, 14]: 5 | Plant response rating, Barley, Winter [1, 15]: 10 | Plant response rating (scale of 0 to 100), Barley, Winter ([1]; Preemergence, 31 g ai/ha): 0 | Plant response rating, Barley, Winter [1, 16]: 0 | Plant response rating, Barley, Winter [1, 17]: 0 | Plant response rating, Barley, Winter [1, 18]: 0 | Plant response rating, Barley, Winter [1, 19]: 0 | Blackgrass plant response rating [2, 13]: 70 | Plant response rating, Blackgrass [2, 14]: 85 | Plant response rating, Blackgrass [2, 15]: 95 | Plant response rating (scale of 0 to 100), Blackgrass ([2]; Preemergence, 31 g ai/ha): 75 | Plant response rating, Blackgrass [2, 16]: 75 | Plant response rating, Blackgrass [2, 17]: 75 | Plant response rating, Blackgrass [2, 18]: 80 | Plant response rating, Blackgrass [2, 19]: 75 | Chickweed plant response rating [3, 13]: 85 | Plant response rating, Chickweed [3, 14]: 100 | Plant response rating, Chickweed [3, 15]: 100 | Plant response rating (scale of 0 to 100), Chickweed ([3]; Preemergence, 31 g ai/ha): 100 | Plant response rating, Chickweed [3, 16]: 100 | Plant response rating, Chickweed [3, 17]: 100 | Plant response rating, Chickweed [3, 18]: 100 | Plant response rating, Chickweed [3, 19]: 100 | Deadnettle plant response rating [4, 13]: 40 | Plant response rating, Deadnettle [4, 14]: 40 | Plant response rating, Deadnettle [4, 15]: 60 | Plant response rating (scale of 0 to 100), Deadnettle ([4]; Preemergence, 31 g ai/ha): 15 | Plant response rating, Deadnettle [4, 16]: 30 | Plant response rating, Deadnettle [4, 17]: 55 | Plant response rating, Deadnettle [4, 18]: 60 | Plant response rating, Deadnettle [4, 19]: 30 | Foxtail, Green plant response rating [5, 13]: 80 | Plant response rating, Foxtail, Green [5, 14]: 100 | Plant response rating, Foxtail, Green [5, 15]: 100 | Plant response rating (scale of 0 to 100), Foxtail, Green ([5]; Preemergence, 31 g ai/ha): 15 | Plant response rating, Foxtail, Green [5, 16]: 80 | Plant response rating, Foxtail, Green [5, 17]: 85 | Plant response rating, Foxtail, Green [5, 18]: 85 | Plant response rating, Foxtail, Green [5, 19]: 90 | Galium plant response rating [6, 13]: 90 | Plant response rating, Galium [6, 14]: 100 | Plant response rating, Galium [6, 15]: 100 | Plant response rating (scale of 0 to 100), Galium ([6]; Preemergence, 31 g ai/ha): 0 | Plant response rating, Galium [6, 16]: 10 | Plant response rating, Galium [6, 17]: 35 | Plant response rating, Galium [6, 18]: 70 | Plant response rating, Galium [6, 19]: 100 | Kochia plant response rating (kochia (Kochia scoparia); [13]): 10 | Plant response rating, Kochia (kochia (Kochia scoparia); [14]): 40 | Plant response rating, Kochia (kochia (Kochia scoparia); [15]): 50 | Plant response rating (scale of 0 to 100), Kochia (kochia (Kochia scoparia); Preemergence, 31 g ai/ha): 0 | Plant response rating, Kochia (kochia (Kochia scoparia); [16]): 0 | Plant response rating, Kochia (kochia (Kochia scoparia); [17]): 0 | Plant response rating, Kochia (kochia (Kochia scoparia); [18]): 0 | Plant response rating, Kochia (kochia (Kochia scoparia); [19]): 35 | Lambsquarters plant response rating [7, 13]: 90 | Plant response rating, Lambsquarters [7, 14]: 100 | Plant response rating, Lambsquarters [7, 15]: 100 | Plant response rating (scale of 0 to 100), Lambsquarters ([7]; Preemergence, 31 g ai/ha): 95 | Plant response rating, Lambsquarters [7, 16]: 100 | Plant response rating, Lambsquarters [7, 17]: 100 | Plant response rating, Lambsquarters [7, 18]: 100 | Plant response rating, Lambsquarters [7, 19]: 100 | Pigweed plant response rating [8, 13]: 75 | Plant response rating, Pigweed [8, 14]: 85 | Plant response rating, Pigweed [8, 15]: 100 | Plant response rating (scale of 0 to 100), Pigweed ([8]; Preemergence, 31 g ai/ha): 35 | Plant response rating, Pigweed [8, 16]: 95 | Plant response rating, Pigweed [8, 17]: 100 | Plant response rating, Pigweed [8, 18]: 100 | Plant response rating, Pigweed [8, 19]: 80 | Ryegrass, Italian plant response rating [9, 13]: 85 | Plant response rating, Ryegrass, Italian [9, 14]: 98 | Plant response rating, Ryegrass, Italian [9, 15]: 100 | Plant response rating (scale of 0 to 100), Ryegrass, Italian ([9]; Preemergence, 31 g ai/ha): 75 | Plant response rating, Ryegrass, Italian [9, 16]: 80 | Plant response rating, Ryegrass, Italian [9, 17]: 85 | Plant response rating, Ryegrass, Italian [9, 18]: 90 | Plant response rating, Ryegrass, Italian [9, 19]: 90 | Speedwell plant response rating [10, 13]: 70 | Plant response rating, Speedwell [10, 14]: 75 | Plant response rating, Speedwell [10, 15]: 100 | Plant response rating (scale of 0 to 100), Speedwell ([10]; Preemergence, 31 g ai/ha): 80 | Plant response rating, Speedwell [10, 16]: 75 | Plant response rating, Speedwell [10, 17]: 100 | Plant response rating, Speedwell [10, 18]: 100 | Plant response rating, Speedwell [10, 19]: 75 | Wheat, Winter plant response rating [11, 13]: 0 | Plant response rating, Wheat, Winter [11, 14]: 0 | Plant response rating, Wheat, Winter [11, 15]: 0 | Plant response rating (scale of 0 to 100), Wheat, Winter ([11]; Preemergence, 31 g ai/ha): 0 | Plant response rating, Wheat, Winter [11, 16]: 0 | Plant response rating, Wheat, Winter [11, 17]: 0 | Plant response rating, Wheat, Winter [11, 18]: 5 | Plant response rating, Wheat, Winter [11, 19]: 0 | Windgrass plant response rating [12, 13]: 85 | Plant response rating, Windgrass [12, 14]: 90 | Plant response rating, Windgrass [12, 15]: 90 | Plant response rating (scale of 0 to 100), Windgrass ([12]; Preemergence, 31 g ai/ha): 30 | Plant response rating, Windgrass [12, 16]: 75 | Plant response rating, Windgrass [12, 17]: 80 | Plant response rating, Windgrass [12, 18]: 95 | Plant response rating, Windgrass [12, 19]: 85
